Measurements published in paper PMC7767221, “Conjugates Containing Two and Three Trithiolato-Bridged Dinuclear Ruthenium(II)-Arene Units as In Vitro Antiparasitic and Anticancer Agents” (Pharmaceuticals, 2020).
Like-named read-outs stand apart in the source and are kept apart here.

Columns and labels:
[1] = tested on: T. gondii β-gal tachyzoites; conditions: 72 h, tachyzoites grown in HFF; previously reported; cited from earlier work
(D-)A24cisPt8.0 cells [2] = tested on: (D-)A24cisPt8.0 cells; design: method as in PMID 32485798; conditions: cited from earlier work
(D-)A24cisPt8.0 cells [3] = assay: Growth inhibition, 72 h, cell density by Casy cell analyzer; format: cell-based, human; conditions: 72 h exposure, mean ± SD
Description: (§1) Human ovarian carcinoma cells A2780 and the cisPt resistant variant A2780cisR were purchased from the European Center of Cell Cultures (ECACC, Salisbury, UK). The HEK-293 cell line was kindly provided by Prof. Mühlemann, University of Bern. The A24 cells and its subline (D-)A24cisPt8.0 were described previously. The cancer cells A24 and (D-)A24cisPt8.0 [105] (human lung adenocarcinoma cells wild type A24 and cisPt resistant (D-)A24cisPt8.0 subline), A2780 and A2780cisR (human ovarian cisplatin sensitive and resistant cancer cells), together with HEK293 (human embryonic kidney) cells as model for normal cells, were included in the study for the evaluation of the ruthenium compounds’ selectivity and cross-resistance with cisplatin. The A24 sublines, A2780 and A2780cisR were cultured in RPMI 1640 medium without riboflavin, phenol red and antibiotics, buffered with 4.5 mM HEPES (BioConcept, Allschwil, Switzerland), supplemented with 10% (v/v) fetal bovine serum (FBS) (Thermo Scientific, Weltham, MA, USA) as the only source of flavins, and with 13.5 mM NaHCO3. In order to retain cisplatin resistance in the A2780cisR cell line, 1 µM cisplatin was added to the medium every 2–3 passages. HEK293 cells were cultured in DMEM/F12 medium, supplemented with 10% (v/v) FBS. At subcultivation, cell monolayers were rinsed with PBS and exposed for 3 min to StemPro Accutase Cell Dissociation Reagent (Thermo Scientific, Weltham, MA, USA) at 36.5 °C. Detached cells were resuspended in culture medium. Cell densities were determined using Moxi flow cytometer according to manufacturer instructions (Orflo Technologies, Ketchum, ID, USA). Experiments and subcultivations were performed using light with wavelengths above 520 nm to prevent photochemical artifacts. Cytostatic drug response was quantified as previously reported. Briefly, HEK293, A24, A2780, A2780cisR, and (D-)A24cisPt8.0 single cell suspensions were freshly prepared from confluent cell layers using Accutase and diluted in culture medium to a cell density of 2 × 10^4 or 8 × 10^4 cells/mL (D-)A24cisPt8.0. 150 µl of this suspension was combined with 150 µl of twice the cisPt or Ru-compound concentration in a 96-well microtiter plate (TPP, Trasadingen, Switzerland). Test plates were incubated under standard conditions for 72 h. Cell densities were determined in a Casy I cell analyzer using Casystat software (OLS OMNI Life Science, Bremen, Germany). Drug concentrations leading to 50% growth inhibition compared to controls were calculated using GraphPad Software (La Jolla, CA, USA). Each experiment was done in triplicates.

A2780cisR cells [4] = assay: as above; format: cell-based, human; conditions: 72 h exposure, mean ± SD
Description: as §1

A24 cells = assay: as above; format: cell-based, human; conditions: 72 h exposure, mean ± SD
Description: as §1

HEK293 cells = assay: as above; format: cell-based, human; conditions: 72 h exposure, mean ± SD
Description: as §1

A2780 cells [5] = assay: as above; format: cell-based, human; conditions: 72 h exposure, mean ± SD
Description: as §1

Neospora caninum [6] = tested on: Neospora caninum; design: method as in PMID 28652238, PMID 30620038, PMID 31469986; conditions: read-out: N. caninum proliferation IC50; cited from earlier work
HFF host cells = conditions: cited from earlier work
Neospora caninum [7] = tested on: Neospora caninum; design: method as in PMID 28652238, PMID 30620038, PMID 31469986; conditions: applied orally, neosporosis mouse model; cited from earlier work
T. gondii = tested on: T. gondii; design: method as in PMID 28652238; conditions: cited from earlier work; for parasiticidal action on T. gondii: applied at 250 nM; for IC50: read-out: T. gondii proliferation IC50
A2780cisR cells [8] = tested on: A2780cisR cells; design: method as in PMID 27561129, doi:10.1016/j.jorganchem.2014.10.050, PMID 27187018; conditions: read-out: IC50 against A2780cisR cells; cited from earlier work
A2780 cells [9] = conditions: read-out: IC50 against A2780 cells; cited from earlier work
[10] = tested on: HFF (human foreskin fibroblasts); assay: Cytotoxicity in uninfected confluent HFF host cells (AlamarBlue assay); format: cell-based; conditions: 72 h, non-infected HFF
Description: (§2) If not otherwise stated, all tissue culture media were purchased from Gibco-BRL, and biochemical agents purchased from Sigma-Aldrich. HFF (SCRC-1041.1) were purchased from ATCC, and were maintained in DMEM medium containing 10% fetal calf serum (FCS, Gibco-BRL, Waltham, MA, USA), and antibiotics as described. Transgenic T. gondii β-gal (expressing the β-galactosidase gene from Escherichia coli) were kindly provided by Prof. David Sibley (Washington University, St. Louis, MO, USA) and were maintained in HFF as host cells, and were isolated as described before.
Cytotoxicity assays using uninfected confluent HFF host cells were performed as previously described by AlamarBlue assay. In brief, confluent HFF monolayers in 96 well-plates were exposed to 0.1, 1 and 2.5 µM of each compound. Non-treated HFF as well as DMSO controls (0.01%, 0.1% and 0.25%) were included. After 72 h of incubation at 37 °C/5% CO2, the medium was removed, and plates were washed once with PBS. Resazurin stock solution was diluted 1:200 in PBS and 200 µL were added to each well. Plates were read at excitation wavelength 530 nm and emission wavelength […] at the EnSpire® multimode plate reader (PerkinElmer, Inc). Fluorescence was measured at different timepoints. Relative fluorescence units were calculated from timepoints with linear increase.

[11] = tested on: T. gondii β-gal tachyzoites; assay: T. gondii β-gal tachyzoite proliferation in HFF (β-galactosidase / CPRG assay); format: cell-based, Toxoplasma gondii; conditions: 72 h, % of DMSO control
Description: as §2
Compounds were prepared as 1 mM stock solutions in DMSO (dimethyl sulfoxide, Sigma, St. Louis, MO, USA). For activity assays, HFF monolayers were cultured in 96 well plates by seeding 5 × 10^3 HFF per well and allowing them to grow to confluence in phenol-red free culture medium at 37 °C/5% CO2. For infection, T. gondii β-gal tachyzoites were separated from their host cells as described, parasites were isolated and HFF monolayers were infected with freshly isolated tachyzoites (1 × 10^3 per well), with compounds solutions added concomitantly during infection.
For the primary screening, T. gondii β-gal infected HFF were exposed to 0.1 and 1µM of each compound for a period of 72 h, or the corresponding concentration of DMSO (0.01% and 0.1%, respectively) as control. For the determination of IC50 values against T. gondii β-gal, compounds were added at 8 concentrations: 0.007, 0.01, 0.03, 0.06, 0.12, 0.25, 0.5, and 1 µM. After 72 h of culture at 37 °C/5% CO2, the medium was aspirated, and cells were permeabilized by adding 90 µL PBS (phosphate buffered saline) containing 0.05% Triton X-100. After addition of 10 µL 5 mM chlorophenol red-β-D-galactopyranoside (CPRG; Roche Diagnostics, Rotkreuz, Switzerland) dissolved in PBS, the absorption shift was measured at 570 nm wavelength at various time points using an EnSpire® multimode plate reader (PerkinElmer, Inc, Waltham, MA, USA). For the primary screening at 0.1 and 1 μM, the activity, measured as the release of chlorophenol red over time, was calculated as percentage from the respective DMSO control, which represented 100% of T. gondii β-gal growth. For the IC50 assays, the activity measured as the release of chlorophenol red over time was proportional to the number of live parasites down to 50 per well as determined in pilot assays. IC50 values were calculated after the logit-log-transformation of relative growth and subsequent regression analysis. All calculations were performed using the corresponding software tool contained in the Excel software package (Microsoft, Redmond, WA, USA).

Molecule: CCc1nc(N)nc(N)c1-c1ccc(Cl)cc1 [Pyrimethamine, pyrimethamine]
- IC50 [1]: 326 nM

Molecule: N.N.[Cl][Pt][Cl] [cisPt, cis-diamminedichloroplatinum(II)]
- resistance to cisplatin of (D-)A24cisPt8.0 subline compared to the A24 cells ((D-)A24cisPt8.0 cells [2]): approximately 30 fold
- IC50 ((D-)A24cisPt8.0 cells [3]): 8.89 ± 0.446 µM
- IC50 (A2780cisR cells [4]): 4.08 ± 0.21 µM
- IC50 (A24 cells): 0.333 ± 0.075 µM
- IC50 (HEK293 cells): 0.515 ± 0.064 µM
- IC50 (A2780 cells [5]): 0.21 ± 0.119 µM

Molecule: [(η^6-p-MeC6H4Pr^i)2Ru2(µ2-S-p-C6H4R)3]^+ with R = p-Bu^t
- IC50 (Neospora caninum [6]): 5 nM
- dosage that did not affect HFF host cells (HFF host cells): ≥ 200 µM
- parasite load in the central nervous system (Neospora caninum [7]): did not reduce parasite load in the central nervous system
- parasiticidal action on T. gondii (T. gondii): did not act in a parasiticidal manner
- IC50 (T. gondii): 62 nM
- IC50 (A2780cisR cells [8]): 30 nM
- IC50 (A2780 cells [9]): 30 nM

Molecule: [(η6-p-MeC6H4Pri)2Ru2(μ2-SCH2C6H4-p-But)2(μ2-SC6H4-p-O)-(CO)(CH2)3(CO)-(p-O-C6H4-μ2S)Ru2(μ2-SCH2C6H4-p-But)2(η6-p-MeC6H4Pri)2]Cl2 [Compound 7]
- HFF viability (%) 0.1 µM [10]: 76 ± 2%
- HFF viability (%) 1 µM [10]: 25 ± 4%
- IC50 ((D-)A24cisPt8.0 cells [3]): 0.053 ± 0.007 µM
- IC50 (A2780cisR cells [4]): 0.072 ± 0.008 µM
- IC50 (A24 cells): 0.033 ± 0.002 µM
- IC50 (HEK293 cells): 0.085 ± 0.026 µM
- IC50 (A2780 cells [5]): 0.097 ± 0.041 µM
- T. gondii β-gal growth (%) 0.1 µM [11]: 68 ± 2%
- T. gondii β-gal growth (%) 1 µM [11]: 0 ± 6%

Molecule: [(η^6-p-MeC6H4Pr^i)2Ru2(µ2-SR^1)(µ2-SR^2)2]^+ with R^1 = CH2-C6H4-p-Bu^t, R^2 = C6H4-p-OH, X = Cl^- [D]
- IC50 (Neospora caninum [6]): 1 nM
- parasite load in the central nervous system (Neospora caninum [7]): did not reduce parasite load in the central nervous system
- parasiticidal action on T. gondii (T. gondii): did not act in a parasiticidal manner

Molecule: [(η^6-p-MeC6H4Pr^i)2Ru2(µ2-S-p-C6H4R)3]^+ with R = p-Me [A]
- IC50 (Neospora caninum [6]): 15 nM
- dosage that did not affect HFF host cells (HFF host cells): ≥ 200 µM
- parasite load in the central nervous system (Neospora caninum [7]): did not reduce parasite load in the central nervous system
- parasiticidal action on T. gondii (T. gondii): did not act in a parasiticidal manner
- IC50 (T. gondii): 34 nM

Molecule: [(η6-p-MeC6H4Pri)2Ru2(μ2-SCH2C6H4-p-But)2(μ2-SC6H4-p-NH)-(CO)-m-C6H4-(CO)-(p-NH-C6H4-μ2S)Ru2(μ2-SCH2C6H4-p-But)2(η6-p-MeC6H4Pri)2]Cl2 [Compound 17]
- HFF viability (%) 0.1 µM [10]: 102 ± 2%
- HFF viability (%) 1 µM [10]: 106 ± 7%
- IC50 ((D-)A24cisPt8.0 cells [3]): 0.09 ± 0.003 µM
- IC50 (A2780cisR cells [4]): 0.644 ± 0.08 µM
- IC50 (A24 cells): 0.24 ± 0.016 µM
- IC50 (HEK293 cells): 0.447 ± 0.043 µM
- IC50 (A2780 cells [5]): 0.416 ± 0.106 µM
- T. gondii β-gal growth (%) 0.1 µM [11]: 117 ± 7%
- T. gondii β-gal growth (%) 1 µM [11]: 109 ± 6%
